# From patent publication US20200190464A1, “NOVEL LAC[…] ANTIVIRAL EFFECT AND COMPOSITION THEREOF” (priority 2017, published 2020)
# Tested on: A/CK/ANYANG/MS96 (H9N2)
# Design: species or system low-pathogenic avian influenza H9N2 serotype virus
compound,measurement,value
"CCOC(=O)C1=C[C@@H](OC(CC)CC)[C@H](NC(C)=O)[C@@H](N)C1 [Tamiflu, Oseltamivir phosphate]",HA positive (eggs),0/3
same,HA titer,0
same,antiviral activity (virus detection in sensitized and inoculated eggs),showed antiviral activity
